IC50 data for six molecules are collected here from ChEMBL document CHEMBL1255271, “Determinants of in vitro drug susceptibility testing of Plasmodium vivax” (Antimicrob Agents Chemother, 2008).

Test [1] concerns Plasmodium vivax. Nature of the test: Antimicrobial activity against Plasmodium vivax trophozoites by microscopy. The format is functional, organism-based.
Test [2] has as its system Plasmodium vivax. In words: Antimicrobial activity against Plasmodium vivax at the ring stage by microscopy. The class given is functional, organism-based.
Test [3] deals with Plasmodium vivax. In words: Antimicrobial activity against Plasmodium vivax at the trophozoites by microscopy treated during ring stage. The format is functional, organism-based.
For test [4], the system named is Plasmodium vivax. Nature of the test: Antimicrobial activity against Plasmodium vivax trophozoites measured after 30 hrs by microscopy. The class given is functional, organism-based.
The subject of test [5] is Plasmodium vivax. In words: Antimicrobial activity against Plasmodium vivax at the ring stage measured after 30 hrs by microscopy. The class given is functional, organism-based.
Test [6] deals with Plasmodium vivax. In words: Antimicrobial activity against Plasmodium vivax trophozoites measured within 30 hrs by microscopy. The class given is functional, organism-based.
In test [7] the test system is Plasmodium vivax. Nature of the test: Antimicrobial activity against Plasmodium vivax at the ring stage measured within 30 hrs by microscopy. The class given is functional, organism-based.
Test [8] concerns Plasmodium falciparum. Nature of the test: microbe, parasite or virus in culture.
Description: Antimicrobial activity against Plasmodium falciparum trophozoites by microscopy treated during ring stage
Test [9] relates to Plasmodium vivax. Nature of the test: Antimicrobial activity against fast-growing synchronous Plasmodium vivax by microscopy.
The subject of test [10] is Plasmodium vivax. In words: Antimicrobial activity against slow-growing synchronous Plasmodium vivax by microscopy.
In test [11] the test system is Plasmodium falciparum. Nature of the test: microbe, parasite or virus in culture. This is another data set of the same source.
Description: Antimicrobial activity against Plasmodium falciparum at the ring stage by microscopy

Each structure is given as a SMILES string.

For orientation: IC50 means the concentration at which inhibition is half-maximal. Turning to `OC(c1cc(C(F)(F)F)nc2c(C(F)(F)F)cccc12)C1CCCCN1` (stereo not given) [MEFLOQUINE], the concentration for half-maximal inhibition (IC50) came out at 17 nM in the test with Plasmodium vivax [1]; 6.39 nM in the test with Plasmodium vivax [2]; 12.5 nM in the test with Plasmodium vivax [3]; 7.27 nM in the test with Plasmodium vivax [4]; 7.26 nM in the test with Plasmodium vivax [5]; 17.4 nM in the test on Plasmodium vivax [6]. For the same molecule, the IC50 in the test on Plasmodium vivax [7] turned out to be 22.2 nM; with Plasmodium falciparum [8], 4.6 nM.
`C[C@H]1[C@H](OC(=O)CCC(=O)O)O[C@@H]2O[C@@]3(C)CC[C@H]4[C@H](C)CC[C@@H]1[C@@]24OO3` [ARTESUNATE]: the IC50 in the test on Plasmodium vivax [1] was determined as 1.61 nM; with Plasmodium vivax [2], 0.86 nM; in the test on Plasmodium vivax [4], 1.2 nM; in the test on Plasmodium vivax [5], 0.83 nM; in the test with Plasmodium vivax [6], 1.6 nM; with Plasmodium vivax [7], 1.39 nM.
With `Clc1ccc2c(N3CCN(CCCN4CCN(c5ccnc6cc(Cl)ccc56)CC4)CC3)ccnc2c1` [PIPERAQUINE], the half-inhibitory concentration (IC50) came out at 29.1 nM with Plasmodium vivax [4], 14.6 nM in the test with Plasmodium vivax [5], 22.9 nM with Plasmodium vivax [6] and 31.2 nM in the test on Plasmodium vivax [7].
Take `CCN(CC)CCCC(C)Nc1ccnc2cc(Cl)ccc12` (stereo not given) [CHLOROQUINE]: the IC50 worked out at 478 nM with Plasmodium vivax [1]; 55.2 nM with Plasmodium vivax [2]; 2810 nM in the test on Plasmodium vivax [3]; 298 nM in the test with Plasmodium vivax [4]; 59.8 nM with Plasmodium vivax [5]; 539 nM in the test on Plasmodium vivax [6]. Moreover, the figures for the half-inhibitory concentration (IC50) in the test on Plasmodium vivax [7], in the test with Plasmodium vivax [9] and in the test with Plasmodium vivax [10] were 475 nM, 435 nM and 39.9 nM, respectively.
In the case of `CCN(CC)Cc1cc(Nc2ccnc3cc(Cl)ccc23)ccc1O`, the concentration for half-maximal inhibition (IC50) with Plasmodium vivax [1] was determined as 22.1 nM; with Plasmodium vivax [2], 10 nM; with Plasmodium vivax [3], 24.2 nM; in the test with Plasmodium vivax [4], 16.5 nM; in the test on Plasmodium vivax [5], 7.85 nM; with Plasmodium vivax [6], 18.9 nM. Moreover, the results for the IC50 in the test with Plasmodium vivax [7], in the test on Plasmodium falciparum [11] and with Plasmodium falciparum [8] were 23.4 nM, 15.2 nM and 8.2 nM, respectively.
As for `CCCCN(CCCC)CC(O)c1cc(Cl)cc2c1-c1ccc(Cl)cc1/C2=C/c1ccc(Cl)cc1` (stereo not given) [LUMEFANTRINE], the IC50 in the test on Plasmodium vivax [4] stood at 32.9 nM; in the test on Plasmodium vivax [5], 37.6 nM; in the test with Plasmodium vivax [6], 14.6 nM; with Plasmodium vivax [7] it was 24.8 nM.
